# Literature values as cited in patent US20050118256A1, “Extended release alpha-2 agonist pharmaceutical dosage forms” (priority 2003, published 2005).
# Where a name gives a salt, the structure may show the parent alone.
# Tested on: skeletal muscle fibers, neuromuscular junction, spinal reflexes
# Settings: animal models
structure (smiles),measurement,value
"Clc1ccc2nsnc2c1NC1=NCCN1 [Tizanidine, 5-chloro-4-(2-imidazolin-2-ylamino)-2,1,3-benzothiodiazole hydrochloride]",effect on monosynaptic spinal reflexes,no major effect
same,effect on skeletal muscle fibers or the neuromuscular junction,no direct effect
